Test results published in patent publication US7326574B2, “Compositions and methods for detecting stress-inducible proteins” (Stressgen Biotechnologies Corporation, priority 1999, dated 2008).

Columns and labels:
immunizing peptide = test: Anti-peptide titre ELISA with peptide on the solid phase; format: binding, human; details: rabbit host
Description: Methods: Hsp70B′ Antibodies were produced as follows. Hsp70B′ antibodies were produced in rabbits, goats and mice with either synthetic peptides or recombinant Hsp70B′ protein as immunogen. Eight peptides were chosen from the human Hsp70B′ amino acid sequence. One of the Hsp70B′ peptides, the NT peptide […](C) (SEQ ID NO:9) corresponded to an N-terminal fragment. […] Sera were collected at various time points and the antibody response to the immunizing protein or peptide was evaluated in an indirect enzyme immunoassay (EIA). Titres were established as the dilution factor at which the absorbance in the test sample was equal to 0.2 optical density units. […]
Anti-peptide titre was determined as follows. […] The anti-peptide titres in the rabbits, goats, and mice were determined in an ELISA with peptide on the solid phase. […]
Biotinylated secondary antibodies (100 μl) were added to each microtitre plate test well and incubated for four hours at room temperature. […] The plates were read at 414 λ, 20 minutes following the addition of substrate. Titres were established as the reciprocal dilution factor at which the test sample was equal to 0.2 absorbance units.

Hsp70B′ [1] = target: T1, Hsp70B′ (Homo sapiens, UniProt P17066); test: Indirect EIA, relative titre index; format: binding
T1 construct: E. coli BL21 (DE3) cells harboring the expression plasmid for full length human Hsp70B′; made in house; host or cells: E. coli BL21 (DE3) / BLR (DE3), pET24a
T1 sequence (P17066 whole entry): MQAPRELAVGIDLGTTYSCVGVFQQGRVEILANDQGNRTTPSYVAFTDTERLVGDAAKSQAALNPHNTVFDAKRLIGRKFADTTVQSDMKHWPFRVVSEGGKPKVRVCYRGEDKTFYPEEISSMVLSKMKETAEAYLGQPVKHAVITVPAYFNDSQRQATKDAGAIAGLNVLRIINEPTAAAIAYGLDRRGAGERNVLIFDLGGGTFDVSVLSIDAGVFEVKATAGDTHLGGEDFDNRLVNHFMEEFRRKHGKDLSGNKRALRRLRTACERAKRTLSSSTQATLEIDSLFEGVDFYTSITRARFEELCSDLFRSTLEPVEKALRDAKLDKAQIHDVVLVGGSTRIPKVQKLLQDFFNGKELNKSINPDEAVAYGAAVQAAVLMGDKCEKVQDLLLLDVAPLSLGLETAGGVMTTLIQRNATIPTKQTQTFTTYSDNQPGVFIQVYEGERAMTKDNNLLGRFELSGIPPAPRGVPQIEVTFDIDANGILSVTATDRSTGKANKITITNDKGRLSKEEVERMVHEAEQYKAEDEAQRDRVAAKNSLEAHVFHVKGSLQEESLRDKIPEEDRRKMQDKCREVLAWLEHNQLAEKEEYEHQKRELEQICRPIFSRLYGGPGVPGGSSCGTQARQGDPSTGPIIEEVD

recombinant bovine Hsc70 = target: T2, recombinant bovine Hsc70 (Bos taurus, UniProt P19120); test: Indirect EIA, relative titre index; format: binding; details: Hsc70 Protein; relative to irrelevant antibody
T2 construct: purchased Stressgen Biotechnologies SPP-751
T2 sequence (P19120 whole entry): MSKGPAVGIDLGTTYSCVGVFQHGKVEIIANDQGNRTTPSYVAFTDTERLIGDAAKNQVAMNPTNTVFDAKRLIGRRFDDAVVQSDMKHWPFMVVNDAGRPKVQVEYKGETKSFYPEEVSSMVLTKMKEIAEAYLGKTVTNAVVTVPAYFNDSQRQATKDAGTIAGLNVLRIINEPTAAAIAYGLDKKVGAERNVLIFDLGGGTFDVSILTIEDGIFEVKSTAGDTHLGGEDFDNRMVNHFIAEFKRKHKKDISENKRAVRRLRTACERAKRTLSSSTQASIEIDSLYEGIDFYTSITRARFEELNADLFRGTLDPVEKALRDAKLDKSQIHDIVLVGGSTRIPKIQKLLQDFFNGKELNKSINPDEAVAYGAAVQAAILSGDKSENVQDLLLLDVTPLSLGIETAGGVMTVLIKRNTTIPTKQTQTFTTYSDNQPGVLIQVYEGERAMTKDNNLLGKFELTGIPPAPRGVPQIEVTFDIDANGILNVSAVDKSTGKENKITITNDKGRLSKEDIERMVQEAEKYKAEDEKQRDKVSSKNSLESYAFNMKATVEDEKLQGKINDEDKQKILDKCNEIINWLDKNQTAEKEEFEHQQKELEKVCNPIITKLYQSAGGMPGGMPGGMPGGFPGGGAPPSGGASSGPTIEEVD

recombinant human Hsp70A = target: T3, recombinant human Hsp70A (Homo sapiens, UniProt P0DMV8); test: Indirect EIA, relative titre index; format: binding; details: Hsp70A Protein; relative to irrelevant antibody
T3 construct: purchased Stressgen Biotechnologies SPP-755
T3 sequence (P0DMV8 whole entry): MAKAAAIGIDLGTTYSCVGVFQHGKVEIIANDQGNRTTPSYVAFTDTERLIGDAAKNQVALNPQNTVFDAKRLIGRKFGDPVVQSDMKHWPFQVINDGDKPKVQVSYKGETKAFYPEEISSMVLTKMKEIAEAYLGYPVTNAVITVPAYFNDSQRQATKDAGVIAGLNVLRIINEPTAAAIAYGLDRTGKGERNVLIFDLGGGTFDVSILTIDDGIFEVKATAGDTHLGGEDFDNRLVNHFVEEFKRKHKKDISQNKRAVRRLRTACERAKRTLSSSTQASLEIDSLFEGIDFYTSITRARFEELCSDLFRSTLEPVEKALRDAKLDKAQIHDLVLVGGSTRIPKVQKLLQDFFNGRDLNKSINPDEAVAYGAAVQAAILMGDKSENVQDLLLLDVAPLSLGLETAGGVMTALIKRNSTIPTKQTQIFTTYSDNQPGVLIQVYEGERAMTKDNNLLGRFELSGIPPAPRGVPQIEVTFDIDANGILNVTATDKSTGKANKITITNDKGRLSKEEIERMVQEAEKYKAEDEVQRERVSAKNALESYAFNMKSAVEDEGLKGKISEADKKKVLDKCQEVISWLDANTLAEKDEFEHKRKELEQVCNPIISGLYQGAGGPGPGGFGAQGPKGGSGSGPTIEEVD

[2] = target: T4, recombinant hamster Grp78 (Mesocricetus auratus, UniProt P07823); test: Indirect EIA, relative titre index; format: binding; details: Grp78 Protein; relative to irrelevant antibody
T4 construct: purchased Stressgen Biotechnologies SPP-765
T4 sequence (P07823 19-654): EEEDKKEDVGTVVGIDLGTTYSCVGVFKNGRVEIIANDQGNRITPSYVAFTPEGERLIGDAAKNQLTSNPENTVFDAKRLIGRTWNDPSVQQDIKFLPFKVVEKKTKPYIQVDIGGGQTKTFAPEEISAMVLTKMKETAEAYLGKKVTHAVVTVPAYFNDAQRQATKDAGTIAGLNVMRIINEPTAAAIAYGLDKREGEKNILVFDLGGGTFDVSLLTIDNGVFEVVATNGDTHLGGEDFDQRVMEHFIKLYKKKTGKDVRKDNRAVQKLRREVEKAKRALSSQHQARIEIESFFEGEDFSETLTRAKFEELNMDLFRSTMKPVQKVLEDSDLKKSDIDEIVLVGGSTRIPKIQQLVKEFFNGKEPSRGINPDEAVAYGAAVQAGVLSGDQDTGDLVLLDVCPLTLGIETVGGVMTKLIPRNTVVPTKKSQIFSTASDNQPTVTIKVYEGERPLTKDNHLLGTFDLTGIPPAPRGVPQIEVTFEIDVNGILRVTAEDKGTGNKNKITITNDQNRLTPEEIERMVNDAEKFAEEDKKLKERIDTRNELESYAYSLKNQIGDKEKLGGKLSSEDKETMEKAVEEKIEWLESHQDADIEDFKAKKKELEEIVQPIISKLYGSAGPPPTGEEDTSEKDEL

unconjugated CB2 peptide = target: T5, unconjugated CB2 peptide (Homo sapiens, UniProt P17066); test: Indirect EIA, relative titre index; format: binding; details: relative to irrelevant antibody
T5 construct: The CB peptide was also resynthesized on a separate occasion and designated CB2; purchased Research Genetics, Inc; host or cells: chemical synthesis

unconjugated ECB peptide = target: T6, unconjugated ECB peptide (Homo sapiens, UniProt P17066); test: Indirect EIA, relative titre index; format: binding; details: relative to irrelevant antibody
T6 construct: purchased Research Genetics, Inc; host or cells: chemical synthesis

unconjugated TCB peptide = target: T7, unconjugated TCB peptide (Homo sapiens, UniProt P17066); test: Indirect EIA, relative titre index; format: binding; details: relative to irrelevant antibody
T7 construct: purchased Research Genetics, Inc; host or cells: chemical synthesis

unconjugated CE peptide = target: T8, unconjugated CE peptide (Homo sapiens, UniProt P17066); test: Indirect EIA, relative titre index; format: binding; details: relative to irrelevant antibody
T8 construct: purchased Research Genetics, Inc; host or cells: chemical synthesis

Hsp70B′ [3] = target: T1, Hsp70B′; test: Western blotting of HSP70 family members; format: binding; details: SDS-denatured recombinant protein; band intensity 0-3
[4] = target: T9, 68 kDa (Hsp70B′) protein from HeLa cell lysates (Homo sapiens, UniProt P17066); test: Immunoblotting of unstressed and heat stressed human cell lysates; format: binding; set-up: key to Reactivity with 68 kDa (Hsp70B′) protein, HeLa: 0 = no signal; 3 = a very strong signal
T9 construct: endogenous in cells; host or cells: HeLa (ATCC CCL-2), unstressed and heat stressed
T9 sequence (P17066 whole entry): as the sequence (P17066 whole entry) above

E. coli DnaK = E. coli DnaK (Escherichia coli, UniProt P0A6Y8)
E. coli DnaK, sequence (P0A6Y8 whole entry): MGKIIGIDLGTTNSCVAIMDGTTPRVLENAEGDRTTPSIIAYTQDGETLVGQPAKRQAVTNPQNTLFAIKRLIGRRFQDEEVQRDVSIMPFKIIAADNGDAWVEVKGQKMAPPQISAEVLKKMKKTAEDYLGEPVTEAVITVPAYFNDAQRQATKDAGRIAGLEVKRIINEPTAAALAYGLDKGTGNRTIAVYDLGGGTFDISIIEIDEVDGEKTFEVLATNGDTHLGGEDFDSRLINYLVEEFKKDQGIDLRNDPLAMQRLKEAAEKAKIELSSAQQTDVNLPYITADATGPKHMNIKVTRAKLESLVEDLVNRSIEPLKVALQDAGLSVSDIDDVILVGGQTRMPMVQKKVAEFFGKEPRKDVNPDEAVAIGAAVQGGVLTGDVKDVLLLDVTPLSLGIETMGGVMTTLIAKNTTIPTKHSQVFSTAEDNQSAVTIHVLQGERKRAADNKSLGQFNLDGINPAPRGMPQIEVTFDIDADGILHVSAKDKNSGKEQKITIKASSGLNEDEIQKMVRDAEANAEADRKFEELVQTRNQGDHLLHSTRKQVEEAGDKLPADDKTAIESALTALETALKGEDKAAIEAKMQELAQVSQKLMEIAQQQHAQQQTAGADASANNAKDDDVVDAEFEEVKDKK

[5] = target: recombinant M. tuberculosis Hsp71 (Mycobacterium tuberculosis, UniProt P9WMJ9)
recombinant M. tuberculosis Hsp71, sequence (P9WMJ9 whole entry): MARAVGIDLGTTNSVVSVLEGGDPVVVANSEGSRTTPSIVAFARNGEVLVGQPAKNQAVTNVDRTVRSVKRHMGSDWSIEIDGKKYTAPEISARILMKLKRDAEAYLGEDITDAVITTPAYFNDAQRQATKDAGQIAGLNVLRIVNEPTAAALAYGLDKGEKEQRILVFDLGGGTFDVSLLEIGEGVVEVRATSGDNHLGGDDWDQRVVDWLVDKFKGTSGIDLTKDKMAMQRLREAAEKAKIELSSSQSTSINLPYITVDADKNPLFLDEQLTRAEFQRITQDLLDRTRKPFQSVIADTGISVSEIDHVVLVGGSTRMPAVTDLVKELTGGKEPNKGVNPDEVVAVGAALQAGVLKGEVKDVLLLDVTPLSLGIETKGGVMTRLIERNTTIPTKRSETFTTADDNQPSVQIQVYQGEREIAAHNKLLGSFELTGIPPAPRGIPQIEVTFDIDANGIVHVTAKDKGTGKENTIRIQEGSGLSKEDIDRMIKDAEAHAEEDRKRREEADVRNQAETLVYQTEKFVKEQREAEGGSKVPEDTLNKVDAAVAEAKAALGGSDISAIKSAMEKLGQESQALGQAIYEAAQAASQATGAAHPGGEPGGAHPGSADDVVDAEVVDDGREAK

HeLa cells = test: Induction of Hsc70, Hsp70A and Hsp70B′ proteins under different induction conditions, Western blotting; format: cell-based, human; details: Azetidine 5 μM, 5 hours, CdCl2 100 μM, 2 hours, ZnCl2 250 μM; for Induction of Hsc70, relative protein level: 20 ug total cell lysate
Jurkat cells = test: as above; format: cell-based, human; details: Azetidine 5 μM, 5 hours, CdCl2 100 μM, 2 hours, ZnCl2 250 μM
A431 cells = test: as above; format: cell-based, human; details: Azetidine 5 μM, 5 hours, CdCl2 100 μM, 2 hours, ZnCl2 250 μM
[6] = system: HeLa, Jurkat and A-431 human cell lines; test: Relative induction of Hsc70, Hsp70A and Hsp70B′ proteins; format: cell-based
hsp70B′ mRNA = details: Leung et al., Biochem. J. 267:125-132, 1990; cited from earlier work

ECB (VPGGSSCGTQARQGDPSTGPI)
# Animals Responding (immunizing peptide): 3/3 | Antisera Titer (EIA) (immunizing peptide; individual animals, reciprocal dilution giving 0.2 absorbance units): >204800 | Relative Titre Index (Hsp70B′ [1]; Hsp70B′ Protein, relative to irrelevant antibody, rabbit antibody): ≧41 | Preferential reactivity with Hsp70B′ over other HSP70 protein homologs (Hsp70B′ [1]; based on absolute relative titre index values): 41 fold | Relative Titre Index (recombinant bovine Hsc70): 1 | Relative Titre Index (recombinant human Hsp70A): 1 | Relative Titre Index [2]: 1 | Relative Titre Index (unconjugated CB2 peptide): ≧86 | Relative Titre Index (unconjugated ECB peptide): ≧129 | Relative Titre Index (unconjugated TCB peptide): *1 | Relative Titre Index (unconjugated CE peptide): 1 | Hsp70B′ Reactivity Rec. protein (Hsp70B′ [3]): 3 | Reactivity with 68 kDa (Hsp70B′) protein, HeLa HS ([4]; heat stressed HeLa lysate, 10-20 μg): 3 | Antisera that specifically detected Hsp70B′ in immunoblots (fraction of rabbits) ([4]; sera from three individual rabbits): ⅓ | Reactivity with 68 kDa (Hsp70B′) protein, HeLa ([4]; unstressed HeLa lysate, 10-20 μg): 0 | Relative Titre Index (E. coli DnaK): 1 | Relative Titre Index [5]: 1

[Cl][Cd][Cl] [CdCl2]
Induction of Hsp70A, relative protein level (HeLa cells): +3 | Induction of Hsp70A/B′, relative protein level (HeLa cells): +3 | Induction of Hsp70B′, relative protein level (HeLa cells): +2 | Induction of Hsc70, relative protein level (HeLa cells): +3 | Induction of Hsc70, relative protein level (Jurkat cells): +3 | Induction of Hsp70A, relative protein level (Jurkat cells): +2 | Induction of Hsp70A/B′, relative protein level (Jurkat cells): +2 | Induction of Hsp70B′, relative protein level (Jurkat cells): +3 | Induction of Hsc70, relative protein level (A431 cells): +3 | Induction of Hsp70A, relative protein level (A431 cells): +2 | Induction of Hsp70A/B′, relative protein level (A431 cells): +3 | Induction of Hsp70B′, relative protein level (A431 cells): +1 | Expression of the constitutive Hsc70 protein [6]: not affected | Induction of Hsp70B′ protein [6]: induced | hsp70B′ mRNA after treatment (hsp70B′ mRNA): only trace amounts

[Cl-].[Cl-].[Zn+2] [ZnCl2]
Induction of Hsp70A, relative protein level (HeLa cells): +3 | Induction of Hsp70A/B′, relative protein level (HeLa cells): +3 | Induction of Hsp70B′, relative protein level (HeLa cells): +1 | Induction of Hsc70, relative protein level (HeLa cells): +3 | Induction of Hsc70, relative protein level (Jurkat cells): +3 | Induction of Hsp70A, relative protein level (Jurkat cells): +2 | Induction of Hsp70A/B′, relative protein level (Jurkat cells): +1 | Induction of Hsp70B′, relative protein level (Jurkat cells): +1 | Induction of Hsc70, relative protein level (A431 cells): +3 | Induction of Hsp70A, relative protein level (A431 cells): +2 | Induction of Hsp70A/B′, relative protein level (A431 cells): +3 | Induction of Hsp70B′, relative protein level (A431 cells): +2 | Expression of the constitutive Hsc70 protein [6]: not affected | Induction of Hsp70B′ protein [6]: induced
